Reference: PMC12338828, “Evaluation of organotin (IV) dithiocarbamate compounds as potential anti-leukemia agents towards CCRF-CEM (CCL-119) cell line: Cytotoxic, apoptotic, cell cycle and genotoxic study” (PLOS One, 2025)
Values joined by “and” are separate entries in the source; they are usually repeats but may differ in a detail not shown here. Identical values can stand only once.

What was measured:
CCL-119 cells [1] = assay: Cell cycle analysis (PI/RNase staining); type: cell-based; settings: 24 hours at IC50; single replicates n1-n3
Description: The cells were cultured and seeded in a 6-well plate at 1 x 10^6 cells/mL. VCR was used as a positive control, and untreated cells were used as a negative control in this assay. The concentration of the compounds and VCR was followed by IC50 values that were taken from the MTT assay.
After 24 hours of incubation, all cells in the plate were transferred to the Eppendorf tube and centrifuged for 5 minutes at 4°C at 1500 rpm. After centrifuging, the supernatant was removed, and cells were washed with 500 µL cold PBS three times. The pellet was fixed by using 70% ethanol overnight at −20°C. Next, the samples were stained with 500 µL of PI/RNase staining buffer and incubated for 15 minutes. The samples were then transferred into Falcon tubes. The data was recorded using a flow cytometer and analyzed using ModFit LT software.

CCL-119 cells [2] = assay: Mode of cell death, Annexin V-FITC/PI staining (flow cytometry); type: cell-based
Description: (§1) The mode of cell death can be observed through the Annexin V-FITC/PI staining (BD, USA). The result of this test is either apoptosis or necrosis. […] VCR was used as a positive control, while cells without any treatment were used as a negative control. Then, the plate was incubated for 24 hours. After the incubation, the cell suspension in each well was collected into different Eppendorf tubes. The tubes were then centrifuged for 5 minutes at 1500 rpm at 4°C. After the centrifuge, the supernatant in the tubes was removed, and the cell pellets were washed twice with cold PBS. Then, centrifuge the tubes again and remove the supernatant. Next, 100 µL of Annexin V binding buffer was resuspended in each tube, and 5 µL Annexin V-FITC was pipetted into the tube to stain the cells for 15 minutes at room temperature, dark. After that, 5 µL of propidium iodide was piped into the tube for 5 minutes. The staining process is done in dark conditions. Lastly, the sample was transferred into the Falcon tube, and each tube was resuspended in 400 µL of Annexin V binding buffer. The sample was analyzed using a flow cytometer (BD FACS Canto II) within one hour.

[3] = as above; type: cell-based; settings: human, Viable (Q3)
Description: as §1

WIL2-NS cells = system: WIL2-NS cells; design: method as in Rasli et al. (2023); settings: non-cancerous cells; 24 hours of exposure; graph referred to earlier paper; ref Rasli et al. (2023); cited from earlier work
CCL-119 cells [4] = assay: MTT cytotoxicity assay; settings: for Selectivity Index (SI): IC50 WIL2-NS / IC50 CCL-119, 24 hours
Description: (§2) The T-acute lymphoblastic leukemia cell line, CCRF-CEM (CCL-119™), and a non-cancerous cell, WIL2-NS (CRL-8155™), were purchased from the American Type Culture Collection (ATCC). Both are suspension types of cells and were cultured in Roswell Park Memorial Institute Medium 1640 (RPMI-1640) (Sigma-Aldrich), supplemented with 10% Fetal Bovine Serum (FBS) (Capricorn Scientific) and 1% penicillin-streptomycin (Nacalai Tesque) to obtain the complete growth medium and were incubated at 37 °C with a 5% CO2 incubator. Both suspension cells are used for tests when the cells’ passage becomes passage 3–10 (maximum).
(§3) All stock solutions of the organotin (IV) dithiocarbamate compounds were prepared at 10 mM and dissolved in dimethyl sulphoxide (DMSO) (ChemAR®). The stock solutions were stored at 4°C; fresh dilutions were made by adding the RPMI-1640 medium before the experiment. The dilution is carried out using the serial dilution method to obtain the desired concentrations, which are 5 µM, 2.5 µM, 1.25 µM, 0.63 µM, 0.32 µM, and 0.16 µM in this study. Vincristine (VCR) is used as a positive control in this study.
(§4) Both CCL-119 and WIL2-NS cells were seeded in a 96-well plate at a final concentration of 5 x 10^5 cells/well and treated with 5 µM, 2.5 µM, 1.25 µM, 0.63 µM, 0.32 µM, and 0.16 µM of organotin (IV) dithiocarbamate compound for 24 hours at 37°C with 5% CO2. VCR was used as a positive control in this study, while cells without treatment were used as a negative control. After 24 hours of exposure, 20 µL of MTT (Merck) salt solution was added into each well and incubated for another 4 hours. The plate was wrapped with aluminium foil as MTT salt is light sensitive. After 4 hours, the purple crystal formazan was formed. All the medium was removed carefully from each well, and 200 µL DMSO was added to each well to dissolve the purple formazan crystal. Then, the plates were incubated for an additional 15 minutes. The results were analyzed and recorded using an ELISA microplate reader at 570 nm. The data was then plotted into a graph, and IC50 values were determined.
(§5) The selectivity index (SI) is determined by dividing the cytotoxic activity (IC50 value) of each compound on a non-cancerous cell line (WIL2-NS) by the leukemia cell line (CCL-119). […] WIL2- NS cell lines were selected as the comparator because it is a non-cancerous human B lymphoblast cell line, which is like CCL-119 (T-lymphoblastic leukemia), derived from lymphocytes. This choice ensures that comparisons are made between biologically similar cell types, minimizing variability that could arise from differences in tissue origin or lineage.

in vitro = settings: human
Description: as §2, §3, §4, §5

CCL-119 cells [5] = assay: Alkaline comet assay; type: cell-based; settings: 1 hour of exposure
Description: VCR was used as a positive control, and untreated cells were used as a negative control in this assay. The cells were incubated for 1 hour. After incubation, cells in each well were transferred to the Eppendorf tube to centrifuge for 5 minutes at 4°C by using a refrigerated microcentrifuge. The supernatant was removed, and the samples were washed with 1 mL of cold PBS. This process was repeated 3 times. After completion of the process, the supernatant was removed, and the pellet was left for a while on top of the ice while preparing the slide.
About 140 µL of normal melting agar (NMA) is pipetted on top of the fully frosted slide, and a cover slip is put on the agar for 5 minutes or until the agar fully solidifies. After that, the cover slip was removed, and 80 µL of low melting agar (LMA) was added to an Eppendorf tube containing the pellet of cells. The suspension was then transferred into a frosted slide with NMA agar. The cover slip was then put back on top of the frosted slide for 10 minutes or until dry. Next, the slide was transferred into a Coplin jar that contained lysis buffer solution and Triton X-100. The slides were then incubated at 4°C overnight. The slides were arranged on an electrophoresis tank filled with electrophoresis buffer for 20 minutes. Electrophoresis is done for another 20 minutes at 25 V with 300 mA. The slides were washed with a neutralization buffer solution 3 times at a 5-minute time interval. Finally, 30 µL of ethidium bromide (50 µg/mL) was added, and the slide was observed by using fluorescence microscopy (OLYMPUS BX51TR). CometScore software is used to analyze the DNA damage of the cells. The comet assay was performed under alkaline conditions (pH > 13) to detect both single- and double-strand DNA breaks.

Jurkat E6.1 cells = system: Jurkat E6.1 cells; design: method as in Awang et al. (2015) [26]; settings: ref Awang et al. (2015) [26]; cited from earlier work
[6] = 24 hours at IC50, single replicates n1-n3

SMILES	cells in G0/G1 phase (CCL-119 cells [1])	cells in G2/M phase (CCL-119 cells [1])	cells in S phase (CCL-119 cells [1])	Early Apoptosis (Q4) (CCL-119 cells [2]; [6])	Late Apoptosis (Q2) (CCL-119 cells [2]; [6])	Necrosis (Q1) (CCL-119 cells [2]; [6])	cell death through apoptosis (population of cells) (CCL-119 cells [2]; 24 hours, treated at IC50, early + late apoptosis)	viability at 24 h [3]	IC50 (WIL2-NS cells)	IC50 (CCL-119 cells [4]; 24 h, read-out: IC50 (µM) CCL-119)	Selectivity Index (SI) (CCL-119 cells [4])	Selectivity Index (SI) (CCL-119 cells [4]; listed as Vincristine (VCR))	viability at 24 h, 0.63 µM (in vitro; cell viability at 0.63 µM)	viability at 24 h, 1.25 µM (in vitro; cell viability at 1.25 µM)	viability at 24 h, 5 µM (in vitro; cell viability at 5.00 µM)	Tail moment (CCL-119 cells [5]; mean ± SEM)	percentage of DNA intensity in the tail (CCL-119 cells [5]; mean ± SEM)	% DNA intensity (CCL-119 cells [5]; single replicates n1-n3)	Tail moment (CCL-119 cells [5]; single replicates n1-n3)	mode of cell death in Jurkat E6.1 cells (Jurkat E6.1 cells)
CC[C@]1(O)C[C@H]2CN(CCc3c([nH]c4ccccc34)[C@@](C(=O)OC)(c3cc4c(cc3OC)N(C=O)[C@H]3[C@@](O)(C(=O)OC)[C@H](OC(C)=O)[C@]5(CC)C=CCN6CC[C@]43[C@@H]65)C2)C1 [VCR, Vincristine, reference compound]	36.70% and 30.32% and 29.02%	5.35% and 8.00% and 3.69%	57.95% and 61.68% and 67.28%	39.2% and 38.7% and 37.4%	19% and 17.2% and 17.9%	0.45% and 0.54% and 0.51%	56.46%	44.4%	2.89 ± 0.03 µM	1.82 ± 1.53 µM	below 2	1.59	50.6%	46.3%	41.6%	4.17 ± 0.74 A.U	8.48 ± 1.09%	6.493% and 8.677% and 10.2647%	2.837 A.U and 4.286 A.U and 5.38 A.U	
CCCCN(C(=S)[S][Sn]([c]1ccccc1)([c]1ccccc1)[c]1ccccc1)c1ccccc1 [triphenyltin (IV) butylphenyl dithiocarbamate]																				predominant induction of early-phase apoptotic cell death
